Where “and” joins values, the source holds several entries; their conditions need not be identical. Equal values may be shown once.
Tests used:
Test in all cases: Histone peptide microarray
Type in all cases: binding, human
[1] = system: ING4; conditions: ING4, GST-tagged; arrays performed twice, n of 4
Procedure, shortened: (§1)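 Using an optimized microarray protocol, purified GST-tagged PHD fingers were incubated at 0.5 μM on 293 histone peptides with single or multiple modifications, and array signal was recorded as the average of 4 replicates.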

[2] = system: BPTF (PB); conditions: BPTF (PB), GST-tagged; arrays performed twice, n of 4
Procedure, shortened: as §1

[3] = system: MORC3 (CW); conditions: MORC3 (CW), GST-tagged; arrays performed twice, n of 4
Procedure, shortened: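 Binding read as mean relative signal from 4 replicates; microarray held 293 synthetic histone peptides with single or combinatorial PTMs. Each GST-tagged PHD reader was applied at 0.5 μM using the optimized Petell protocol.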

[4] = system: AIRE (PP); conditions: AIRE (PP), GST-tagged; arrays performed twice, n of 4
Procedure, shortened: as §1

[5] = system: ING1; conditions: ING1, GST-tagged; arrays performed twice, n of 4
Procedure, shortened: as §1

[6] = system: PHF13; conditions: PHF13, GST-tagged; arrays performed twice, n of 4
Procedure, shortened: as §1

[7] = system: KDM5A (1); conditions: KDM5A (1), GST-tagged; arrays performed twice, n of 4
Procedure, shortened: as §1

[8] = system: DPF2 (PPC2W2); conditions: DPF2 (PPC2W2), GST-tagged; arrays performed twice, n of 4
Procedure, shortened: as §1

[9] = system: KDM5B (3); conditions: KDM5B (3), GST-tagged; arrays performed twice, n of 4
Procedure, shortened: as §1

[10] = system: SP140L; conditions: SP140L, GST-tagged; arrays performed twice, n of 4
Procedure, shortened: as §1

[11] = system: MLL5; conditions: MLL5, GST-tagged; arrays performed twice, n of 4
Procedure, shortened: as §1

[12] = system: KDM5B (1); conditions: KDM5B (1), GST-tagged; arrays performed twice, n of 4
Procedure, shortened: as §1

[13] = system: KDM4C (TTP); conditions: KDM4C (TTP), GST-tagged; arrays performed twice, n of 4
Procedure, shortened: as §1

[14] = system: PHF21A; conditions: PHF21A, GST-tagged; arrays performed twice, n of 4
Procedure, shortened: as §1

[15] = system: PHF8; conditions: PHF8, GST-tagged; arrays performed twice, n of 4
Procedure, shortened: as §1

[16] = system: ING5; conditions: ING5, GST-tagged; arrays performed twice, n of 4
Procedure, shortened: as §1

[17] = system: ING2; conditions: ING2, GST-tagged; arrays performed twice, n of 4
Procedure, shortened: as §1

[18] = system: PHF2; conditions: PHF2, GST-tagged; arrays performed twice, n of 4
Procedure, shortened: as §1

[19] = system: PHRF1 (RP); conditions: PHRF1 (RP), GST-tagged; arrays performed twice, n of 4
Procedure, shortened: as §1

[20] = system: KDM5A (3); conditions: KDM5A (3), GST-tagged; arrays performed twice, n of 4
Procedure, shortened: as §1

[21] = system: CHD5 (PCC); conditions: CHD5 (PCC), GST-tagged; arrays performed twice, n of 4
Procedure, shortened: as §1

[22] = system: CHD5 (PPCC); conditions: CHD5 (PPCC), GST-tagged; arrays performed twice, n of 4
Procedure, shortened: as §1

[23] = system: RAG2; conditions: RAG2, GST-tagged; arrays performed twice, n of 4
Procedure, shortened: as §1

[24] = system: DIDO1; conditions: DIDO1, GST-tagged; arrays performed twice, n of 4
Procedure, shortened: as §1

[25] = system: PHF23; conditions: PHF23, GST-tagged; arrays performed twice, n of 4
Procedure, shortened: as §1

[26] = system: BAZ2B; conditions: BAZ2B, GST-tagged; arrays performed twice, n of 4
Procedure, shortened: as §1

[27] = system: KDM7A; conditions: KDM7A, GST-tagged; arrays performed twice, n of 4
Procedure, shortened: as §1

[28] = system: TAF3; conditions: TAF3, GST-tagged; arrays performed twice, n of 4
Procedure, shortened: as §1

[29] = system: TRIM66 (PB); conditions: TRIM66 (PB), GST-tagged; arrays performed twice, n of 4
Procedure, shortened: as §1

[30] = system: CHD4 (PPCC); conditions: CHD4 (PPCC), GST-tagged; arrays performed twice, n of 4
Procedure, shortened: as §1

[31] = system: ING3; conditions: ING3, GST-tagged; arrays performed twice, n of 4
Procedure, shortened: as §1

Substance: H3K27acK36me2 (21-44): H3 21-44
- Array Heatmap value (peptide array binding signal) [1]: 0.4678 and 0.4306
- Array Heatmap value (peptide array binding signal) [2]: 0.3426 and 0.3388
- Array Heatmap value (peptide array binding signal) [3]: 0.3508 and 0.3632
- Array Heatmap value (peptide array binding signal) [4]: 0.4428 and 0.4192
- Array Heatmap value (peptide array binding signal) [5]: 0.5489 and 0.5171
- Array Heatmap value (peptide array binding signal) [6]: 0.6217 and 0.5883
- Array Heatmap value (peptide array binding signal) [7]: 0.4783 and 0.4109
- Array Heatmap value (peptide array binding signal) [8]: 0.7163 and 0.602
- Array Heatmap value (peptide array binding signal) [9]: 0.4476 and 0.4512
- Array Heatmap value (peptide array binding signal) [10]: 0.3702 and 0.357
- Array Heatmap value (peptide array binding signal) [11]: 0.5387 and 0.5129
- Array Heatmap value (peptide array binding signal) [12]: 0.6449 and 0.6364
- Array Heatmap value (peptide array binding signal) [13]: 0.4885 and 0.4721
- Array Heatmap value (peptide array binding signal) [14]: 0.4478 and 0.464
- Array Heatmap value (peptide array binding signal) [15]: 0.3474 and 0.3417
- Array Heatmap value (peptide array binding signal) [16]: 0.3615 and 0.3253
- Array Heatmap value (peptide array binding signal) [17]: 0.6056 and 0.5874
- Array Heatmap value (peptide array binding signal) [18]: 0.5335 and 0.4712
- Array Heatmap value (peptide array binding signal) [19]: 0.4704 and 0.4395
- Array Heatmap value (peptide array binding signal) [20]: 0.4461 and 0.4626
- Array Heatmap value (peptide array binding signal) [21]: 0.7409 and 0.7549
- Array Heatmap value (peptide array binding signal) [22]: 0.5507 and 0.5149
- Array Heatmap value (peptide array binding signal) [23]: 0.238 and 0.2335
- Array Heatmap value (peptide array binding signal) [24]: 0.6948 and 0.6464
- Array Heatmap value (peptide array binding signal) [25]: 0.5178 and 0.5191
- Array Heatmap value (peptide array binding signal) [26]: 0.4609 and 0.4258
- Array Heatmap value (peptide array binding signal) [27]: 0.3413 and 0.3447
- Array Heatmap value (peptide array binding signal) [28]: 0.2617 and 0.2453
- Array Heatmap value (peptide array binding signal) [29]: 0.5511 and 0.5888
- Array Heatmap value (peptide array binding signal) [30]: 0.5418 and 0.5498
- Array Heatmap value (peptide array binding signal) [31]: 0.4824 and 0.4746

Reference: publication PMC6979384, “Characterization of the plant homeodomain (PHD) reader family for their histone tail interactions” (Epigenetics & Chromatin, 2020)
